Test results: ChEMBL document CHEMBL1201862, “PubChem BioAssay data set” (2004)
The source made the active and inactive calls.

What was measured:
[1] = molecular target: Ras and Rab interactor 1/Tyrosine-protein kinase ABL1 (Homo sapiens, UniProt P00519+Q13671); format: functional;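 further: biochemical TR-FRET dose-response test measuring inhibition of binding between Rin1 and Abl proteins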
[2] = system: Streptococcus sp. 'group A'; experiment: growth inhibition of control SK(-) GAS strain, dose response, counter-screen for streptokinase expression inhibitor project, luminescence, kanamycin, BacTiterGlo, confirmation (AID 1900); format: functional, organism-based
[3] = molecular target: T1, Streptokinase A (Streptococcus pyogenes serotype M1, UniProt P10520); experiment: S. pyogenes streptokinase expression inhibitors, potency, dose response, plasminogen activation absorbance, OD405 (AID 1914); format: functional, Streptococcus pyogenes M1 GAS;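 further: secreted streptokinase activity via plasminogen activation per viability signal from cell pellet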
T1 sequence (P10520 whole entry): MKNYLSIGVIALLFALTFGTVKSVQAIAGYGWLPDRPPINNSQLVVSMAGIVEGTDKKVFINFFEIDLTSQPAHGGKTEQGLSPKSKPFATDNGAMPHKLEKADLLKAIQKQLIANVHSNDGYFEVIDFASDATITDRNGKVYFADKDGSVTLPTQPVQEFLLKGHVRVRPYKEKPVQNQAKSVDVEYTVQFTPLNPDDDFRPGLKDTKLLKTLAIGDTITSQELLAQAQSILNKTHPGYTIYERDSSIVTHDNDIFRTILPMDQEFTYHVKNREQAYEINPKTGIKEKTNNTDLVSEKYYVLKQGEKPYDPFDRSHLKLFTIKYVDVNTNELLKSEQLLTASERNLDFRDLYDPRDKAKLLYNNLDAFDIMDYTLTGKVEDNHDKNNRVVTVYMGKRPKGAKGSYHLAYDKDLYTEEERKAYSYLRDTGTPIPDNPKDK

[4] = system: Streptococcus; experiment: Group A Streptococcus viability loss, dose response, counter-screen for streptokinase expression inhibitor project, luminescence, BacTiterGlo (AID 1915); format: functional, organism-based;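 further: potency for reduction of bacterial viability or growth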
[5] = molecular target: FAD-linked sulfhydryl oxidase ALR (Homo sapiens, UniProt P55789); experiment: inhibitors of human ALR sulfhydryl oxidase, dose response, biochemical, H2O2 detection, luminescence, cherry-pick (AID 493248)
[6] = molecular target: T2, Corticotropin-releasing factor receptor 2/Corticotropin-releasing factor-binding protein (Homo sapiens, UniProt P24387+Q13324); experiment: Dose Response confirmation of uHTS hits for small molecule antagonists of the CRF-binding protein and CRF-R2 receptor complex.; format: functional; settings: read-out: IC50_Mean
T2 sequence (Q13324 whole entry): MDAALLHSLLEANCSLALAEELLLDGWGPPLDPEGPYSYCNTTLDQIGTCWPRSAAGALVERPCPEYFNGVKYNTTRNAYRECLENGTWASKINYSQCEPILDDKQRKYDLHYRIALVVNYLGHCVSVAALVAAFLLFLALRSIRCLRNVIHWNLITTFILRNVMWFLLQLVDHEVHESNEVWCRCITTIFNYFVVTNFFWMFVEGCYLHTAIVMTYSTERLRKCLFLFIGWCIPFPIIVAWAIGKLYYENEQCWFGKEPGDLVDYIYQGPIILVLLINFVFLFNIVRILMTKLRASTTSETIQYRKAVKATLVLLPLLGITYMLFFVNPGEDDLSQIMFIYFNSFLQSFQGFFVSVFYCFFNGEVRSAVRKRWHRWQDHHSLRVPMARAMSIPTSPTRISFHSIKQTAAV
T2 sequence (P24387 whole entry): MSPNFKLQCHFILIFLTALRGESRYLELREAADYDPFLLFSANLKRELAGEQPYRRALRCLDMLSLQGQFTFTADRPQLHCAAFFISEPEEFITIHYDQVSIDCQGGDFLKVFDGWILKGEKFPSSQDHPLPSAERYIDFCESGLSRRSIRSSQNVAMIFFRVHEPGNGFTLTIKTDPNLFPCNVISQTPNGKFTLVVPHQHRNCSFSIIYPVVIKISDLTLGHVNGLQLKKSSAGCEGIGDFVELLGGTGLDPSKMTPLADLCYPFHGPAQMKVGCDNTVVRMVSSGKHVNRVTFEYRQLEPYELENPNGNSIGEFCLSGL

[7] = molecular target: T2, Corticotropin-releasing factor receptor 2/Corticotropin-releasing factor-binding protein; experiment: activators of CRF receptor 2 with binding protein – uHTS hits, confirmation (AID 602473); format: functional; settings: read-out: EC50_Mean
[8] = CRF-BP/CRF-R2 complex antagonists, dose response, cell-based, uHTS hits, 384-well (AID 651639); format: functional, Homo sapiens; settings: read-out: IC50_Mean
[9] = molecular target: T3, Sentrin-specific protease 8 (Homo sapiens, UniProt Q96LD8); format: functional
T3 sequence (Q96LD8 whole entry): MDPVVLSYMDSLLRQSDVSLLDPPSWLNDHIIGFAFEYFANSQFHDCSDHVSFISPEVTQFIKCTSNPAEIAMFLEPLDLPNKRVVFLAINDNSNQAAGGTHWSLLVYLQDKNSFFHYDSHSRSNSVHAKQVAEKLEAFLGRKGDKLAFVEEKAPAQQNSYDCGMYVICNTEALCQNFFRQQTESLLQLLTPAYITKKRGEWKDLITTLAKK

[10] = molecular target: T3, Sentrin-specific protease 8; format: functional; remark: listed apart in the source
[11] = molecular target: T4, High affinity choline transporter 1 (Homo sapiens, UniProt Q9GZV3); experiment: CHT inhibitors, dose response, cell-based, 5-point CRC, membrane potential dye (AID 504840); format: functional
T4 sequence (Q9GZV3 whole entry): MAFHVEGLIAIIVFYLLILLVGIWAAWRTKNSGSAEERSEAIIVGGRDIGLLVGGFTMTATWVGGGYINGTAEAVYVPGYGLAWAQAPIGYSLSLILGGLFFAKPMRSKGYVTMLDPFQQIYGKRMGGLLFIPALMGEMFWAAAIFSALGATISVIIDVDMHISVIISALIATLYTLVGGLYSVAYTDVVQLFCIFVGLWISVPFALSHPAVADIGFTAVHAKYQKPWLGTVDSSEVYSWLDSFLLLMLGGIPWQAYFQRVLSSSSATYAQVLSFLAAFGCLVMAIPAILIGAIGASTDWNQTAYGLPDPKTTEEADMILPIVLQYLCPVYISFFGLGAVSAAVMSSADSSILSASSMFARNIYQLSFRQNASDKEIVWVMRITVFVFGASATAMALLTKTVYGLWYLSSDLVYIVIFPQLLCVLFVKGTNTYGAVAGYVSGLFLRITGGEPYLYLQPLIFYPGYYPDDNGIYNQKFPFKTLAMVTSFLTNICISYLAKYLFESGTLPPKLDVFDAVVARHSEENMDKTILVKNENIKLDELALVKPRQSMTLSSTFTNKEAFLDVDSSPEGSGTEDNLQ

[12] = molecular target: Genome polyprotein (dengue virus type 2, UniProt P29990); experiment: Dengue-2 NS5 methyltransferase inhibitors, primary screen, biochemical, confirmation dose response (AID 588689); format: functional
Sequence of Genome polyprotein (P29990 2492-3391 limits assumed): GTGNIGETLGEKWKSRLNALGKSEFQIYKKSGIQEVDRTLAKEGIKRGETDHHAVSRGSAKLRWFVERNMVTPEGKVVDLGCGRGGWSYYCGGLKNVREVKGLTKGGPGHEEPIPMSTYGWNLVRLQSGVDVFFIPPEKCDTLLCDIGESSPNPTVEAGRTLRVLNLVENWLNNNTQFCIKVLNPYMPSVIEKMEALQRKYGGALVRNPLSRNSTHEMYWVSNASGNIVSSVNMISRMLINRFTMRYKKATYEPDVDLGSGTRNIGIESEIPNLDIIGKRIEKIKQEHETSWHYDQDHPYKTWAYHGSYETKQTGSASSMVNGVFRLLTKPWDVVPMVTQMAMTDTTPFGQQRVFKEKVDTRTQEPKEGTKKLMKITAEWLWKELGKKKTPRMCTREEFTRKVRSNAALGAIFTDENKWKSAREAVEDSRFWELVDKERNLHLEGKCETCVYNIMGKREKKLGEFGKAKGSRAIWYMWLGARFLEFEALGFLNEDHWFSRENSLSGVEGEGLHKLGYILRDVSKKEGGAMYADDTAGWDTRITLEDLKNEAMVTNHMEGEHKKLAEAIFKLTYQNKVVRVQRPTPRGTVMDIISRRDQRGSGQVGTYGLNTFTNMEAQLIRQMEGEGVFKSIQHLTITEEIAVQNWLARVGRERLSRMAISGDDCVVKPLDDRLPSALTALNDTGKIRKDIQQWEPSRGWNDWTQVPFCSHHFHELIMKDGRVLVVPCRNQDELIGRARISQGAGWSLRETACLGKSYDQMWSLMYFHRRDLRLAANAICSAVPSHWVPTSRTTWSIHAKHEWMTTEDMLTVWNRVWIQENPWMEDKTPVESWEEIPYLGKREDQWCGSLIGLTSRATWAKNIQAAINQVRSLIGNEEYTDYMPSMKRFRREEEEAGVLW

Sequence of Ras and Rab interactor 1/Tyrosine-protein kinase ABL1 (P00519 whole entry): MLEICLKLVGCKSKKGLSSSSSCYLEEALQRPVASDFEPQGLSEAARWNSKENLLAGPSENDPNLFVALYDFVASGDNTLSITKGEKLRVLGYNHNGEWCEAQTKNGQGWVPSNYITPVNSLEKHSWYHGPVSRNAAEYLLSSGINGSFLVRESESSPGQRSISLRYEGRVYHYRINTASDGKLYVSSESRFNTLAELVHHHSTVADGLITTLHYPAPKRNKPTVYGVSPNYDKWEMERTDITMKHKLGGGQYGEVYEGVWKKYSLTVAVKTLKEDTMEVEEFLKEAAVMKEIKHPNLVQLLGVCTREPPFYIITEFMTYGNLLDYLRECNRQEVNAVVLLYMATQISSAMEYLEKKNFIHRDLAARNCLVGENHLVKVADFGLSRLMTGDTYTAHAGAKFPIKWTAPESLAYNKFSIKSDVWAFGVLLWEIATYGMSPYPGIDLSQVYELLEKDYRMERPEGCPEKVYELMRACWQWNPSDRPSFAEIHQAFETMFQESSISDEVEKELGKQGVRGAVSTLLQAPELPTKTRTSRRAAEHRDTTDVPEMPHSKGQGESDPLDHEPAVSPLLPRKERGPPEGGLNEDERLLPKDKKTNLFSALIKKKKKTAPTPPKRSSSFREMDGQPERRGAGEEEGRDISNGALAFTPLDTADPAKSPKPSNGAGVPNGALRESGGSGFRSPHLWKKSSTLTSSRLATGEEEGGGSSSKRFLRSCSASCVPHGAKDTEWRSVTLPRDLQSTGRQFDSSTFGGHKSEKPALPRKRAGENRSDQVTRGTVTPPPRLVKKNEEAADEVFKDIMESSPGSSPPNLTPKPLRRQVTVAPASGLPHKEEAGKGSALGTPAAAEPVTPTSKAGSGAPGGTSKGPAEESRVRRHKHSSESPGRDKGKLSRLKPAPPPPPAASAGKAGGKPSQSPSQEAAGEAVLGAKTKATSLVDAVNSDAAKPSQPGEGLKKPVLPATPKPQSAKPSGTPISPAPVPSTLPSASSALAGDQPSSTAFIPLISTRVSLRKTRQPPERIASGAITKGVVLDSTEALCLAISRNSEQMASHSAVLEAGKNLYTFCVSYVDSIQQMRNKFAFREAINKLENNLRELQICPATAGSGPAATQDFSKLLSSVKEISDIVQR
Sequence of Ras and Rab interactor 1/Tyrosine-protein kinase ABL1 (Q13671 whole entry): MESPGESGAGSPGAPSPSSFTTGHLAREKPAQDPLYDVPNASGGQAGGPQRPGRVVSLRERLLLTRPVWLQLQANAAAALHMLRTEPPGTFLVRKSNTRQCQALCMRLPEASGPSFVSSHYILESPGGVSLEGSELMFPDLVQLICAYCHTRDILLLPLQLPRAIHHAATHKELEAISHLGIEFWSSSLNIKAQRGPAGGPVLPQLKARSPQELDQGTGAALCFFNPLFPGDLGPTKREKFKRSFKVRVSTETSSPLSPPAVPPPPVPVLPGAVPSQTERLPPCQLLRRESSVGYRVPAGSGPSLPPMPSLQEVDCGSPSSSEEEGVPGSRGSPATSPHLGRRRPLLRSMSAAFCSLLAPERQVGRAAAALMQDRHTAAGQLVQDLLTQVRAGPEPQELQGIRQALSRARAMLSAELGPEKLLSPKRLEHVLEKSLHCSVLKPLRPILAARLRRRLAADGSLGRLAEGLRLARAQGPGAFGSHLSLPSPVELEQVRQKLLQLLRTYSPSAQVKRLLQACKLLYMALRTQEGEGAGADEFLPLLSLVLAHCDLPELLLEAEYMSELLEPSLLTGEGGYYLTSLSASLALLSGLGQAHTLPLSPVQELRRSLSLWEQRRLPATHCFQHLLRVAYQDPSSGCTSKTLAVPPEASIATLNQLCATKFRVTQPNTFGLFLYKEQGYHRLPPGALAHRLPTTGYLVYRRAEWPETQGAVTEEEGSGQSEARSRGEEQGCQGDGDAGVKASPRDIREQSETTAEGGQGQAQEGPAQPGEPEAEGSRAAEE
Sequence of FAD-linked sulfhydryl oxidase ALR (P55789 whole entry): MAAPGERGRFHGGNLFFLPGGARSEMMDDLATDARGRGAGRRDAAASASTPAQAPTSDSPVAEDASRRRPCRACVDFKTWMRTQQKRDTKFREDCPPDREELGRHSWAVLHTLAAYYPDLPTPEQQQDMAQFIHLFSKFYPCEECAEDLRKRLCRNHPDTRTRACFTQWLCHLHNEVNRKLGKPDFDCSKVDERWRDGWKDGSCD

Compound | IC50 [1] | IC50 [6] | EC50 [7] | IC50 [8] | further results
CC(C)c1ccc(NC(=O)CSc2nnc(CN3CCOCC3)n2C)cc1 | 14.2 µM (inactive) | – | – | – | –
Oc1cc2ccccc2cc1-c1nnc(S)o1 | – | 10.5 µM (active) | > 53 µM (inactive) | 13.4 µM (active) | EC50 [2]: 10.3 µM (active); EC50 [3]: 23.5 µM (active); EC50 [4]: > 150 µM (not active); AC50 [5]: 0.301 µM (active)
CC(C)N1C(=O)CCC1C(=O)N1CCCc2ccccc21 (stereo unspecified) | – | – | – | – | IC50 [9]: > 100 µM (inactive); IC50 [10]: 9.12 µM (active)
COc1cccc(/C=C2\SC(=S)N(NC(=O)c3ccncc3)C2=O)c1 | – | – | – | – | IC50 [11]: 12.6 µM (active)
C=CCNc1ncnc2c1ncn2[C@H]1CN(Cc2ccc(-c3ccccc3)cc2)C[C@@H](CO)O1 | 24.2 µM (inactive) | – | – | – | –
O=c1c(Sc2ccccc2)c(C(F)(F)F)[nH]n1-c1ccccc1 | – | 22.3 µM (active) | > 53 µM (inactive) | > 20 µM (inactive) | IC50 [12]: 59.5 µM (active)
